In patent US9476053B2, “Methods and compositions for inhibition of immune responses and autoimmunity” (Dynavax Technologies Corporation, priority 2007, dated 2016):
Like-named read-outs stand apart in the source and are kept apart here.

Legend:
[1] = test system: plasmacytoid dendritic cells (PDCs); format: cell-based, human
[2] = test system: IFN-α production in PDC cells; format: cell-based, human
PDC [3] = test: In vivo PDC sensitivity to glucocorticoid in 129 mice treated with DEX plus CpG plus IRS; set-up: species or system mouse; conditions: DEX 1000 μg plus CpG 50 μg plus IRS 100 μg
Protocol: To investigate whether IRPs comprising an IRS restore in vivo PDC sensitivity to glucocorticoid in mice treated with CpG-TLR9 ligand, 129 mice were treated with the glucocorticoid Dexthametasone (DEX; 1000 μg) alone or DEX (1000 μg) plus a immunostimulatory sequence CpG-C ISS C274 (“ISS”; […]. Viability of the different cell type was evaluated as described in Example 9.
Cells were identified to be PDC by the surface presence of B220, CD11c, and PDCA1 marker. Myeloid dendritic cells were identified as to be CD11c positive and B220 negative. B-cells were identified as B220 positive cells and CD11c negative. Monocytes were identified as CD11b positive. Similar results were obtained using blood (data not shown). […] IRPs comprising an IRS restored in vivo PDC sensitivity to glucocorticoid in mice treated with CpG-TLR9 ligand.

PDC [4] = test: Glucocorticoid induced cell death in lupus prone (NZB×NZW)F1 mice treated with DEX plus IRS; format: in vivo, mouse; conditions: DEX 500 μg plus IRS 100 μg, spleen
Protocol: Next, the ability of immunoregulatory sequences to restore responsiveness to glucocorticoid treatment in lupus prone mice (NZB×NZW)F1 was evaluated.
To test whether IRPs comprising an IRS restore sensitiveness to glucocorticoid induced cell death in autoimmune prone animals, Lupus prone mice (NZB×NZW)F1 mice treated with 500 μg of Dexthametasone (DEX) alone or DEX (500 μg) plus IRS (SEQ ID NO: 123) (100 μg) or DEX (500 μg) plus IRS (SEQ ID NO: 123) (100 μg) or DEX (500 μg) plus CTRL oligo (100 μg). Viability of the different cell type was evaluated as described in Example 9.
Cells were identified to be PDC by the surface presence of B220, CD11c, and PDCA1 marker. Myeloid dendritic cells were identified as to be CD11c positive and B220 negative. B-cells were identified as B220 positive cells and CD11c negative. Monocytes were identified as CD11b positive. […] IRS restored sensitiveness to glucocorticoid induced cell death in autoimmune prone animals.

[5] = test system: cells infiltrating inflamed skin; test: Tape-stripping skin inflammation in 129 mice, gene expression of infiltrating cells by Taqman; format: in vivo, mouse; conditions: IRS 100 μg s.c. or i.v. or locally
Protocol: PDC infiltrate the inflamed mouse skin. 129 mice were mechanical stripped 12 times with tape or left untreated as control. After 16 hr mice were euthanized and the skin was collected and digested for 1 hr with a solution containing Liberase 0.28 u/ml and the cellular content was analyzed by flow cytometry. A) depicts an example of the facs plot of plasmacytoid dendritic cells PDC were defined to be CD11c+, […]) Cells infiltrating the skin were stimulated in vitro with an immunostimulatory sequence […] ID NO:125), wherein upper case letters represent PS […] lower case letters represent PO linkages) (1 μM) and IFN-α was measured in the supernatant by ELISA. Cells infiltrating inflamed skin show an IFN-α inflammatory gene signature which is preventable by treatment with IRS. Skin of 129 mice was mechanical inflamed by tape stripping as described in FIG. 39. Mice were stripped only or stripped and treated with IRS (SEQ ID NO:123) (100 μg) either administered s.c. or i.v. or locally on the inflamed skin. A group of mice was left completely untreated to serve as controls. Skin was processed as described in FIG. 39 and RNA was extracted from the infiltrating cells using an RNA kit from Quiagen according to manufacture instruction. Gene expression of specific genes was measured by Taqman. […] IRS can target skin inflammation in vivo.

[6] = influenza virus and SEQ ID NO:123 compared to influenza virus alone, hydroxycortisone 1×10^−8 M
[7] = influenza virus, no hydroxycortisone present

5′-TGCTCCTGGAGGGGTTGT-3′ (chemistry not given here) [SEQ ID NO:123]
reduction in the amount of hydroxycortisone necessary to achieve 50% death of PDCs ([1]; HSV plus SEQ ID NO:123 versus HSV): 37 fold
reduction in the amount of hydroxycortisone necessary to achieve 50% death of PDCs ([1]; ISS plus SEQ ID NO:123 versus ISS): 23 fold
percent survival of PDCs compared to influenza virus alone ([1]; combination with influenza virus, hydroxycortisone 1×10^−6 M, 48H): statistically significant decrease
decrease in survival of PDC cells [1, 6]: 23%
reduction in the amount of hydroxycortisone necessary to achieve 50% death of PDCs ([1]; influenza virus plus SEQ ID NO:123 versus influenza virus): 204 fold
difference in PDC survival [1, 7]: no difference
IFN-α production inhibited [2, 6]: 92%
IFN-α inhibition [2, 7]: completely inhibited
in vivo PDC sensitivity to glucocorticoid in mice treated with CpG-TLR9 ligand (PDC [3]): restored
sensitiveness to glucocorticoid induced cell death in autoimmune prone animals (PDC [4]): restored
IFN-α inflammatory gene signature of cells infiltrating inflamed skin [5]: preventable
